# Marks after values point to notes of the source that are not given here.
# Assays:
# [1] = test system: Mycobacterium Chelonae ATCC 35752; assay: Sterilization test, Mycobacterium chelonae in sterile cups at room temperature (Example 1); type: cell-based; design: key: (+) Indicates growth; (−) indicates no growth or complete kill; conditions: 10 mM EDC+1 mM Sulfo-NHS, 20% isopropyl alcohol
# Procedure: (§1) Porcine aortic roots are fixed by cross-linking according to the method described in U.S. Pat. No. 5,447,536. After fixation, the valves are stored in 10 mM HEPES, 0.85% NaCl, 20% isopropyl alcohol, pH 7.4, at 4° C. The sterility tests described in the following examples are in most cases conducted in the presence of bioprosthetic heart valve tissue; when such tissue is not present, the solutions are simply filtered through a 0.45 micron filter attached to a funnel (filter funnel). The filters are then rinsed with peptone water to eliminate residual chemicals on the membrane that may prevent growth of the organisms tested. Such membrane filters are then incubated on TSA plates at about 32° to 33° C., e.g. 32.5° C. When an aortic valve is inoculated with microorganisms for test purposes and then submitted to sterilization, the solution is filtered as described above. The aortic valve tissue is then washed for 20 minutes in a reciprocating shaker in the presence of peptone water containing Tween 80 in order to extract all indigenous spores or microorganisms from the tissue. This solution is filtered and then incubated as described above. All microbiological testing is performed in a biological laminar flow hood to prevent contamination. The shrinkage temperature and the proteolytic (collagenase and protease) degradation tests are conducted as previously described in the '536 patent. Resistance to calcification is assessed by subdermal implantation of sterilized leaflets and aortic wall coupons in young rats, as also described in the '536 U.S. patent.
# Mycobacterium Chelonae ATCC 35752 (˜10^5) was inoculated in sterile cups. A 10 mM HEPES, 0.85% NaCl, pH 6.5 solution containing 10 mM EDC and 1 mM Sulfo-NHS in the presence or absence of 20% isopropyl alcohol was maintained in contact with the bacteria in the cups for various periods of time (treatment duration). The cups were maintained at room temperature, and the solutions were then filtered. The filters were then incubated at about 32-33° C. for up to 6 weeks (incubation duration) using either Trypticase Soy Agar (TSA) plates or Trypticase Soy Broth (TSB). All inoculations were done in duplicate.
# [2] = test system: Chaetonium globosom ATCC 6205 spores; assay: Sterilization in cups at about 38° C. (Example 6); type: cell-based, Chaetonium globosum; conditions: 25 mM EDC, 20% isopropanol, inoculum Log 10 ˜4.7
# Procedure: In view of the foregoing verification, it was decided to test the effectiveness of the sterilization process against other bacteria using sterile cups. Added to each of the cups is 20 ml of 10 mM HEPES, 0.85%, Nacl, 20% isopropanol, pH 6.5, containing 25 mM EDC without any coupling enhancer, before the cups are placed in a incubator at about 38° C. When the solution temperature reached about 38° C., approximately 10^5-10^6 organisms were inoculated into the solution. The tests were carried out in triplicate. The following four isolated were tested in the form of sporous suspensions: Clostridium sporogenes ATCC 3584, Bacillus pumilus ATCC 27142, Chaetonium globosom ATCC 6205, and Microacus cinereus ATCC 16594. The following three isolates were tested as vegetative cells: Mycobacterium chelonae ATCC 35752, Methylbacterium extorquens ATCC 43645 and Trichosporon aquatile ATCC 22310. The inoculated systems were allowed to incubate for 1 hour, for 5 hours or for 24 hours, and the solutions were then filtered through a 0.45 micron filter. After rinsing, the filter was placed on a TSA plate as described in Example 1. Negative and positive controls indicate that the tests were valid. The results are set forth in Table D which follows wherein the number of CFUs in the inoculum is expressed as its log to the base 10, e.g. 3.4×10^5=5.5: […]
# [3] = test system: Mycobacterium Chelonae ATCC 35752; assay: Sterilization test, Mycobacterium chelonae in sterile cups at room temperature (Example 1); type: cell-based; conditions: EDC plus Sulfo-NHS, 20% isopropyl alcohol
# Procedure: as §1, with “All microbiological testing is performed in a biological laminar flow hood to prevent contamination. The shrinkage temperature and the proteolytic (collagenase and protease) degradation tests are conducted as previously described in the '536 patent.” left out, “patent. […]” for “patent.”
# Bacillus Subtilis spores = assay: Sterilization test, Bacillus subtilis spores in cups with or without fixed heart valves, 40° C. (Example 2); type: cell-based; design: key: (+) Indicates growth; (−) indicates no growth or complete kill; conditions: 20 mM EDC+1 mM Sulfo-NHS, 20% isopropyl alcohol
# Procedure: as §1
# A sterilization process similar to Example 1 is carried out using Bacillus Subtilis spores (˜10^6) inoculated in sterile cups some of which contain cross-linked heart valves that had been fixed by a process according to U.S. Pat. No. 5,447,536. A 10 mM HEPES, 0.85% NaCl, pH 6.5 solution containing 20 mM EDC and 1 mM Sulfo-NHS in the presence of 20% isopropyl alcohol was added for various periods of time (treatment duration). The cups and the heart valves were maintained at 40° C. for the term of the treatment. The solutions were then filtered and the filters incubated for up to 7 days (incubation duration) at about 32-33° C. using Trypticase Soy Agar (TSA) plates. All inoculations were done in duplicate.
compound,measurement,setting,value
"CCN=C=NCCCN(C)C.Cl [EDC, 1-ethyl-3(3-dimethylaminopropyl)carbodiimide hydrochloride]",growth,"[1]; treatment 0 hour, incubation 1 Day, TSA","−,−"
same,growth,"[1]; treatment 0 hour, incubation 1 Day, TSB","−,−"
same,growth,"[1]; treatment 0 hour, incubation 1 Week, TSA","−,−"
same,growth,"[1]; treatment 0 hour, incubation 1 Week, TSB","−,−"
same,growth,"[1]; treatment 12 hours, incubation 1 Day, TSA","−,−"
same,growth,"[1]; treatment 12 hours, incubation 1 Day, TSB","−,−"
same,growth,"[1]; treatment 12 hours, incubation 1 Week, TSA","−,−"
same,growth,"[1]; treatment 12 hours, incubation 1 Week, TSB","−,−"
same,growth,"[1]; treatment 12 hours, incubation 3 Week, TSA","−,−"
same,growth,"[1]; treatment 12 hours, incubation 3 Week, TSB","−,−"
same,growth,"[1]; treatment 12 hours, incubation 4 Week, TSA","−,−"
same,growth,"[1]; treatment 12 hours, incubation 4 Week, TSB","−,−"
same,growth,"[1]; treatment 12 hours, incubation 6 Week, TSA","−,−"
same,growth,"[1]; treatment 12 hours, incubation 6 Week, TSB","−,−"
same,growth,"[1]; treatment 24 hours, incubation 1 Day, TSA","−,−"
same,growth,"[1]; treatment 24 hours, incubation 1 Day, TSB","−,−"
same,growth,"[1]; treatment 24 hours, incubation 1 Week, TSA","−,−"
same,growth,"[1]; treatment 24 hours, incubation 1 Week, TSB","−,−"
same,growth,"[1]; treatment 24 hours, incubation 3 Week, TSA","−,−"
same,growth,"[1]; treatment 24 hours, incubation 3 Week, TSB","−,−"
same,growth,"[1]; treatment 24 hours, incubation 4 Week, TSA","−,−"
same,growth,"[1]; treatment 24 hours, incubation 4 Week, TSB","−,−"
same,growth,"[1]; treatment 24 hours, incubation 6 Week, TSA","−,−"
same,growth,"[1]; treatment 24 hours, incubation 6 Week, TSB","−,−"
same,growth,"[1]; treatment 48 hours, incubation 1 Day, TSA","−,−"
same,growth,"[1]; treatment 48 hours, incubation 1 Day, TSB","−,−"
same,growth,"[1]; treatment 48 hours, incubation 1 Week, TSA","−,−"
same,growth,"[1]; treatment 48 hours, incubation 1 Week, TSB","−,−"
same,growth,"[1]; treatment 48 hours, incubation 3 Week, TSA","−,−"
same,growth,"[1]; treatment 48 hours, incubation 3 Week, TSB","−,−"
same,growth,"[1]; treatment 48 hours, incubation 4 Week, TSA","−,−"
same,growth,"[1]; treatment 48 hours, incubation 4 Week, TSB","−,−"
same,growth,"[1]; treatment 48 hours, incubation 6 Week, TSA","−,−"
same,growth,"[1]; treatment 48 hours, incubation 6 Week, TSB","−,−"
same,growth,"[1]; treatment 72 hours, incubation 1 Day, TSA","−,−"
same,growth,"[1]; treatment 72 hours, incubation 1 Day, TSB","−,−"
same,growth,"[1]; treatment 72 hours, incubation 1 Week, TSA","−,−"
same,growth,"[1]; treatment 72 hours, incubation 1 Week, TSB","−,−"
same,growth,"[1]; treatment 72 hours, incubation 3 Week, TSA","−,−"
same,growth,"[1]; treatment 72 hours, incubation 3 Week, TSB","−,−"
same,growth,"[1]; treatment 72 hours, incubation 4 Week, TSA","−,−"
same,growth,"[1]; treatment 72 hours, incubation 4 Week, TSB","−,−"
same,growth,"[1]; treatment 72 hours, incubation 6 Week, TSA","−,−"
same,growth,"[1]; treatment 72 hours, incubation 6 Week, TSB","−,−"
same,hours of incubation of plates after which no growth was observed,[2]; 5 Hours treatment,(72 hrs.)*
same,hours of incubation of plates after which no growth was observed,[2]; 24 Hours treatment,(96 hrs.)*
same,sterilization treatment time that kills all Mycobacterium chelonae,[3],≤ 12 h
same,growth on TSA plates,"Bacillus Subtilis spores; with valves, treatment 48 hours, incubation 1 Day",−
same,growth on TSA plates,"Bacillus Subtilis spores; with valves, treatment 48 hours, incubation 7 Days",−
same,growth on TSA plates,"Bacillus Subtilis spores; with valves, treatment 72 hours, incubation 1 Day",−
same,growth on TSA plates,"Bacillus Subtilis spores; with valves, treatment 72 hours, incubation 7 Days",−
same,growth on TSA plates,"Bacillus Subtilis spores; without valves, treatment 24 hours, incubation 1 Day",−
same,growth on TSA plates,"Bacillus Subtilis spores; without valves, treatment 24 hours, incubation 7 Days",−
same,growth on TSA plates,"Bacillus Subtilis spores; without valves, treatment 48 hours, incubation 1 Day",−
same,growth on TSA plates,"Bacillus Subtilis spores; without valves, treatment 48 hours, incubation 7 Days",−
same,growth on TSA plates,"Bacillus Subtilis spores; without valves, treatment 72 hours, incubation 1 Day",−
same,growth on TSA plates,"Bacillus Subtilis spores; without valves, treatment 72 hours, incubation 7 Days",−

# — patent publication US6506339B1, “Method of sterilization” (Biomedical Design, Inc., priority 1997, dated 2003)
